The results in this text go back to patent US10738056B2 (Aduro BioTech, Inc., priority 2017, dated 2020).

The subject of experiment [1] is cGAS/STING pathway in THP1 cells. The experiment can be described thus: THP1 cell-based cGAS/STING pathway activity assay (IRF-3-linked luciferase reporter). The following applies: Homo sapiens, THP-1. An outline of the steps:
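THP1 cells carrying an IRF-3-driven luciferase reporter were read across a range of compound concentrations, and IC50 values were derived from these concentration responses; the assay upper limit was 100 μM.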

The target of experiment [2] is Human cGAS amino acids 155-522 (Homo sapiens (Human), UniProt Q8N884). Kind of experiment: cGAS biochemical activity assay (ATP remaining, Kinase-Glo Max luminescence). Particulars: human cGAS 155-522, ATP remaining (Kinase-Glo Max); read-out: cGAS IC50.
Human cGAS amino acids 155-522, sequence (Q8N884 157-522): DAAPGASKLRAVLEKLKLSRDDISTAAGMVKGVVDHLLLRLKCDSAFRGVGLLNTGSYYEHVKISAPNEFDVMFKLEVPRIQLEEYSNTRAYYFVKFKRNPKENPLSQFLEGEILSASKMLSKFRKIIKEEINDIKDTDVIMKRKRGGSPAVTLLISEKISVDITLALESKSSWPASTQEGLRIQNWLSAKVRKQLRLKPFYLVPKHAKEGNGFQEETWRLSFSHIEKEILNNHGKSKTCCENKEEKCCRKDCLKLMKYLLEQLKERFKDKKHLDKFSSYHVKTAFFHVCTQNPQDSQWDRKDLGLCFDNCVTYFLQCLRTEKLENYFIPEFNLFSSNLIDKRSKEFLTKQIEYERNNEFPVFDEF

Regarding `COc1cccc2oc(-c3c(COCC4CNC(=O)O4)[nH]c4c(-c5ccccc5)c(C(F)(F)F)nn4c3=O)nc12` (stereo not shown) [Compound C1177, 5-(((6-(4-methoxybenzo[d]oxazol-2-yl)-7-oxo-3-phenyl-2-(trifluoromethyl)-4,7-dihydropyrazolo[1,5-a]pyrimidin-5-yl)methoxy)methyl)oxazolidin-2-one], the IC50 was 20 to 100 µM in experiment [1] and less than 20 µM in experiment [2].
On the same counts, the results for `Cc1[nH]c2c(-c3ccccc3)c(C(F)(F)F)nn2c(=O)c1-c1nnc(-c2nccc(O)n2)o1` [Compound D1078, 6-(5-(4-hydroxypyrimidin-2-yl)-1,3,4-oxadiazol-2-yl)-5-methyl-3-phenyl-2-(trifluoromethyl)pyrazolo[1,5-a]pyrimidin-7(4H)-one] are more than 100 µM and less than 20 µM.
The like results for `COc1ccc2[nH]c(-c3c(C)[nH]c4c(-c5ccccc5)c(C(F)(F)F)nn4c3=O)nc2c1` [Compound C1016, 6-(5-methoxy-1H-benzo[d]imidazol-2-yl)-5-methyl-3-phenyl-2-(trifluoromethyl)pyrazolo[1,5-a]pyrimidin-7(4H)-one] were, in that order, less than 20 µM and less than 20 µM.
`COc1cccc2oc(-c3c(C)[nH]c4c(-c5ccccc5)c(C(F)F)nn4c3=O)nc12` [Compound C1050, 2-(difluoromethyl)-6-(4-methoxybenzo[d]oxazol-2-yl)-5-methyl-3-phenylpyrazolo[1,5-a]pyrimidin-7(4H)-one]: the IC50 in experiment [1] and in experiment [2] was less than 20 µM in each case.
As for `Cc1[nH]c2c(-c3ccccc3)c(C(F)(F)F)nn2c(=O)c1-c1nc2c(=O)n(C)ccc2o1` [Compound C1106, 5-methyl-2-(5-methyl-7-oxo-3-phenyl-2-(trifluoromethyl)-4,7-dihydropyrazolo[1,5-a]pyrimidin-6-yl)oxazolo[4,5-c]pyridin-4(5H)-one], the IC50 was 20 to 100 µM in experiment [1] and less than 20 µM in experiment [2].
On the same counts, the results for `COCc1[nH]c2c(-c3ccccc3)c(C#N)nn2c(=O)c1-c1nc2c(OC)nc(N)cc2o1` [Compound C1227, 6-(6-amino-4-methoxyoxazolo[4,5-c]pyridin-2-yl)-5-(methoxymethyl)-7-oxo-3-phenyl-4,7-dihydropyrazolo[1,5-a]pyrimidine-2-carbonitrile] are more than 100 µM and less than 20 µM.
The like results for `Cc1[nH]c2c(-c3ccccc3)c(C(F)(F)F)nn2c(=O)c1-c1nc2c(o1)CCCC2O` (stereo not shown) [Compound C1052, 6-(4-hydroxy-4,5,6,7-tetrahydrobenzo[d]oxazol-2-yl)-5-methyl-3-phenyl-2-(trifluoromethyl)pyrazolo[1,5-a]pyrimidin-7(4H)-one] were, in that order, 20 to 100 µM and less than 20 µM.
The like results for `COc1cccc2oc(-c3c(COCC4CNC(=O)O4)[nH]c4c(-c5ccccc5)c(C#N)nn4c3=O)nc12` (stereo not shown) [Compound C1251, 6-(4-methoxybenzo[d]oxazol-2-yl)-7-oxo-5-(((2-oxooxazolidin-5-yl)methoxy)methyl)-3-phenyl-4,7-dihydropyrazolo[1,5-a]pyrimidine-2-carbonitrile] were, in that order, more than 100 µM and less than 20 µM.
As for `CCCS(=O)(=O)NC(=O)c1c(C)[nH]c2c(-c3ccccc3)c(C(F)(F)F)nn2c1=O` [Compound A1111, 5-methyl-7-oxo-3-phenyl-N-(propylsulfonyl)-2-(trifluoromethyl)-4,7-dihydropyrazolo[1,5-a]pyrimidine-6-carboxamide], the IC50 in experiment [1] is more than 100 µM; in experiment [2] it was less than 20 µM.
`COc1cccc2oc(-c3c(C4=CCC(C(=O)O)CC4)[nH]c4c(-c5ccccc5)c(C(F)(F)F)nn4c3=O)nc12` (stereo not shown) [Compound C1234, 4-(6-(4-methoxybenzo[d]oxazol-2-yl)-7-oxo-3-phenyl-2-(trifluoromethyl)-4,7-dihydropyrazolo[1,5-a]pyrimidin-5-yl)cyclohex-3-ene-1-carboxylic acid]: the IC50 in experiment [1] was more than 100 µM; in experiment [2], less than 20 µM.
Take `Cc1nn2c(=O)c(C(=O)Nc3ccccc3S(C)(=O)=O)c(C)[nH]c2c1-c1ccccc1` [Compound A1106, 2,5-dimethyl-N-(2-(methylsulfonyl)phenyl)-7-oxo-3-phenyl-4,7-dihydropyrazolo[1,5-a]pyrimidine-6-carboxamide]: the concentration for half-maximal inhibition (IC50) in experiment [1] is more than 100 µM; in experiment [2] it was less than 20 µM.
As to `Cc1[nH]c2c(-c3ccccc3)c(C#N)nn2c(=O)c1-c1nc2cnccc2o1` [Compound C1275, 5-methyl-6-(oxazolo[4,5-c]pyridin-2-yl)-7-oxo-3-phenyl-4,7-dihydropyrazolo[1,5-a]pyrimidine-2-carbonitrile], the IC50 in experiment [1] was more than 100 µM; in experiment [2], less than 20 µM.
On the same counts, the results for `Cc1[nH]c2c(-c3ccccc3)c(C#N)nn2c(=O)c1-c1nc2c(N)cccc2o1` [Compound C1223, 6-(4-aminobenzo[d]oxazol-2-yl)-5-methyl-7-oxo-3-phenyl-4,7-dihydropyrazolo[1,5-a]pyrimidine-2-carbonitrile] are 20 to 100 µM and less than 20 µM.
The like results for `Cc1[nH]c2c(-c3ccccc3)c(C(F)(F)F)nn2c(=O)c1C(=O)Nc1cccnc1S(C)(=O)=O` [Compound A1096, 5-methyl-N-(2-(methylsulfonyl)pyridin-3-yl)-7-oxo-3-phenyl-2-(trifluoromethyl)-4,7-dihydropyrazolo[1,5-a]pyrimidine-6-carboxamide] were, in that order, 20 to 100 µM and less than 20 µM.
On the same counts, the results for `COc1cccc2oc(-c3c(N4CCOCC4)[nH]c4c(-c5ccccc5)c(C(F)(F)F)nn4c3=O)nc12` [Compound C1258, 6-(4-methoxybenzo[d]oxazol-2-yl)-5-morpholino-3-phenyl-2-(trifluoromethyl)pyrazolo[1,5-a]pyrimidin-7(4H)-one] are less than 20 µM and less than 20 µM.
For `Cc1[nH]c2c(-c3ccccc3)c(C(F)(F)F)nn2c(=O)c1C(=O)Nc1nc(C(C)C)co1` [Compound A1048, N-(4-isopropyloxazol-2-yl)-5-methyl-7-oxo-3-phenyl-2-(trifluoromethyl)-4,7-dihydropyrazolo[1,5-a]pyrimidine-6-carboxamide], the IC50 in experiment [1] is 20 to 100 µM; in experiment [2], 20 to 250 µM.
Turning to `COc1ccc(S(C)(=O)=O)c2oc(-c3c(C)[nH]c4c(-c5ccccc5)c(C(F)(F)F)nn4c3=O)nc12` [Compound C1125, 6-(4-methoxy-7-(methylsulfonyl)benzo[d]oxazol-2-yl)-5-methyl-3-phenyl-2-(trifluoromethyl)pyrazolo[1,5-a]pyrimidin-7(4H)-one], the IC50 was 20 to 100 µM in experiment [1] and less than 20 µM in experiment [2].
For `COc1cccc2oc(-c3c(N4CCCC(C(=O)O)C4)[nH]c4c(-c5ccccc5)c(C(F)(F)F)nn4c3=O)nc12` (stereo not shown) [Compound C1257, 1-(6-(4-methoxybenzo[d]oxazol-2-yl)-7-oxo-3-phenyl-2-(trifluoromethyl)-4,7-dihydropyrazolo[1,5-a]pyrimidin-5-yl)piperidine-3-carboxylic acid], the IC50 in experiment [1] is more than 100 µM; in experiment [2] it was less than 20 µM.
The like results for `CNc1cc(OC)c2nc(-c3c(C)[nH]c4c(-c5ccccc5)c(C(F)(F)F)nn4c3=O)oc2c1` [Compound C1161, 6-(4-methoxy-6-(methylamino)benzo[d]oxazol-2-yl)-5-methyl-3-phenyl-2-(trifluoromethyl)pyrazolo[1,5-a]pyrimidin-7(4H)-one] were, in that order, less than 20 µM and less than 20 µM.
For `COc1ccc(CO)c2oc(-c3c(C)[nH]c4c(-c5ccccc5)c(C(F)(F)F)nn4c3=O)nc12` [Compound C1224, 6-(7-(hydroxymethyl)-4-methoxybenzo[d]oxazol-2-yl)-5-methyl-3-phenyl-2-(trifluoromethyl)pyrazolo[1,5-a]pyrimidin-7(4H)-one], the IC50 is more than 100 µM in experiment [1] and less than 20 µM in experiment [2].
Take `COC[C@@H]1COC(c2c(C)[nH]c3c(-c4ccccc4)c(C(F)(F)F)nn3c2=O)=N1` [Compound C1184, (R)-6-(4-(methoxymethyl)-4,5-dihydrooxazol-2-yl)-5-methyl-3-phenyl-2-(trifluoromethyl)pyrazolo[1,5-a]pyrimidin-7(4H)-one]: the IC50 in experiment [1] was more than 100 µM; in experiment [2] it was less than 20 µM.
For the compound `COCCOc1cccc2oc(-c3c(C)[nH]c4c(-c5ccccc5)c(C(F)(F)F)nn4c3=O)nc12` [Compound C1041, 6-(4-(2-methoxyethoxy)benzo[d]oxazol-2-yl)-5-methyl-3-phenyl-2-(trifluoromethyl)pyrazolo[1,5-a]pyrimidin-7(4H)-one], the IC50 in experiment [1] and in experiment [2] was less than 20 µM each time.
For `Cc1[nH]c2c(-c3ccccc3)c(C(F)(F)F)nn2c(=O)c1-c1ncc(C2CCCOC2)o1` (stereo not shown) [Compound C1027, 5-methyl-3-phenyl-6-(5-(tetrahydro-2H-pyran-3-yl)oxazol-2-yl)-2-(trifluoromethyl)pyrazolo[1,5-a]pyrimidin-7(4H)-one], the IC50 was 20 to 100 µM in experiment [1] and less than 20 µM in experiment [2].
The like results for `Cc1[nH]c2c(-c3ccccc3)c(C(F)(F)F)nn2c(=O)c1-c1nnc(-c2ccco2)o1` [Compound D1007, 6-(5-(furan-2-yl)-1,3,4-oxadiazol-2-yl)-5-methyl-3-phenyl-2-(trifluoromethyl)pyrazolo[1,5-a]pyrimidin-7(4H)-one] were, in that order, 20 to 100 µM and more than 250 µM.
The like results for `Cc1[nH]c2c(-c3ccccc3)c(C(F)(F)F)nn2c(=O)c1C(=O)Nc1cccc(C#N)c1` [Compound A1070, N-(3-cyanophenyl)-5-methyl-7-oxo-3-phenyl-2-(trifluoromethyl)-4,7-dihydropyrazolo[1,5-a]pyrimidine-6-carboxamide] were, in that order, less than 20 µM and less than 20 µM.
In the case of `Cc1[nH]c2c(-c3ccccc3)c(C(F)(F)F)nn2c(=O)c1-c1nnc(C2COCCN2S(C)(=O)=O)o1` (stereo not shown) [Compound D1047, 5-methyl-6-(5-(4-(methylsulfonyl)morpholin-3-yl)-1,3,4-oxadiazol-2-yl)-3-phenyl-2-(trifluoromethyl)pyrazolo[1,5-a]pyrimidin-7(4H)-one], the IC50 in experiment [1] is more than 100 µM; in experiment [2], less than 20 µM.
